What was measured:
[1] = test system: wood decay; assay: Wood decay field stake test (modified AWPA E7-01), ground contact; settings: TBBA added to ethanol, over all concentrations; groups of 10 stakes; seven months in ground
Method: The preservative value of TBBA in terms of preventing wood decay was examined by ground contact exposure of TBBA treated stakes at a test plot in Gainesville, Fla. The test detail was essentially based on the “STANDARD METHOD OF EVALUATING WOOD PRESERVATIVES BY FIELD TESTS WITH STAKES”, Standard E7-01, promulgated by the American Wood Preservers Association (AWPA).
All the test stakes were of southern pine sapwood and were vacuum impregnated with TBBA. The TBBA was dissolved in one of four solutions: ethanol, P9 type A oil, and in two micro-emulsions: • emulsion #1: TBBA 20.81%, Butyl Lactate 31.02%, NP-15 22.33% and water 25.83% • emulsion #2: TBBA 20.05%, Butyl Lactate 29.88%, NP-15 21.51% and water 28.55%
Each of the emulsions was diluted so that the corresponding concentration (w/v) of TBBA in all of the solutions was: 1.72%, 3.4%, 5.1%, 6.8% and 8.5%.
Two groups of control stakes were also installed in the test plot. One group was vacuum impregnated with pure ethanol. The second group was untreated.
The groups of stakes for each treatment were installed in the test plot, left for seven months, and evaluated according to the procedure set-out in AWPA Standard E7-01. […]

[2] = test system: Poria placenta; assay: Biological efficacy test (ASTM D1413-76), soil block medium; format: cell-based
Method: (§1) The following fungi were tested: Neo-Lentinus lepideus (Brown rot fungus), Poria placenta (Brown rot fungus) and Gloeophyllum trabeum (Brown rot fungus). The preservative used was TBBA (waterborne). Seven concentrations of the preservative was used: 3.0%, 2.0%, 1.5%, 1.0%, 0.5%, 0.05% and 0.0% (w/w), i.e. the carrier solution in the absence of the preservative. All wood blocks were of Scots pine sapwood (Pinus sylvestris) with an approximate volume of 6.86 cm^3 (19 mm×19 mm×19 mm). All wood block specimens, where applicable, were vacuum impregnated with the preservative concentrations according to American standard ASTM D1413-76. • Treated test specimens: 3 (fungi)×7 (preservative concentrations)×1 (preservative)×8 (replicates)=168 test blocks • Untreated test specimens (control): 3 (fungi)×1 (preservative)×4 (replicates)=12 test blocks
(§2) After block treatments were completed, all the blocks were sterilized using ionizing radiation according to the conditions set out in American standard ASTM D1413-76. The incubation period for the test was 12 weeks.

[3] = test system: Gloeophyllum trabeum; assay: as above; format: cell-based
Method: as §1, §2

[4] = test system: Neo-Lentinus lepideus; assay: as above; format: cell-based
Method: as §1, §2

[5] = test system: Poria placenta; assay: Biological efficacy test (EN 113), agar medium; format: cell-based
Text: (§3) Two fungi were used: Coniophora puteana Brown rot fungus) and Poria placenta (Brown rot fungus). The preservative used was TBBA (waterborne). Seven concentrations of the preservative was used: 3.0%, 2.0%, 1.5%, 1.0%, 0.5%, 0.05%, and 0.0% (w/w), i.e. the carrier solution in the absence of the active material. All wood blocks were of Scots pine sapwood (Pinus sylvestris) with an approximate volume of 18.75 cm^3 (50 mm×25 mm×15 mm) in accordance with European standard EN 113. • Treated test specimens: 2 (fungi)×7 (preservative concentrations)×1 (preservative)×4 (replicates)=56 test blocks • Untreated test specimens (for exposure alongside treated blocks): 2 (fungi)×7 (preservative concentrations)×1 (preservative)×4 (replicates)=56 test blocks • Untreated test specimens (virulence): 2 (fungi)×6 (replicates)=12 test blocks • Treated check test specimens: 4 (replicates)×7 (preservative concentrations)×1 (preservative)=28 test blocks
(§4) After block impregnation, according to European standard EN 113, and conditioning were completed, all the blocks were sterilized using ionizing radiation according to the conditions set out in EN 113. The incubation period for the test (length of block exposure to the chosen basidiomycete fungi) was 16 weeks.
(§5) It was noted that some waterlogging of certain test and control specimens had occurred. In keeping with the EN 113 format, weight changes for particular waterlogged specimens, when these are clearly unrepresentative of a group, were not included in the mean figures presented. In addition, weight losses of unrepresentative specimens generally, were not included in the mean figures presented.

[6] = test system: Coniophora puteana; assay: Biological efficacy test (EN 113), agar medium; format: cell-based
Text: as §3, §4, §5

[7] = TBBA waterborne 0.05% w/w, retention 0.38 kg/m^3, 12 weeks
[8] = TBBA waterborne 0.5% w/w, retention 3.86 kg/m^3, 12 weeks

`CC(C)(c1cc(Br)c(O)c(Br)c1)c1cc(Br)c(O)c(Br)c1` [TBBA, Tetrabromobisphenol A] was tested, and the “Instances of Grade No. 10 (count per group)” value [1] was 8-10, the “Corrected mean loss in mass (%)” value [2, 7] was 31.70 (9.88) % and the “Corrected mean loss in mass (%)” value [2, 8] was 30.27 (5.59) %. The “Corrected mean loss in mass (%)” value ([2]; TBBA waterborne 1.0% w/w, retention 7.81 kg/m^3, 12 weeks) was 9.65 (18.03) %, the “Corrected mean loss in mass (%)” value ([2]; TBBA waterborne 1.5% w/w, retention 11.57 kg/m^3, 12 weeks) was −0.12 (0.28) % and the “Corrected mean loss in mass (%)” value ([2]; TBBA waterborne 2.0% w/w, retention 15.72 kg/m^3, 12 weeks) was −0.29 (0.26) %. The “Corrected mean loss in mass (%)” value ([2]; TBBA waterborne 3.0% w/w, retention 23.22 kg/m^3, 12 weeks) was −0.71 (0.14) %, the “Corrected mean loss in mass (%)” value [3, 7] was 42.71 (13.14) % and the “Corrected mean loss in mass (%)” value ([3]; TBBA waterborne 0.5% w/w, retention 3.87 kg/m^3, 12 weeks) was 45.02 (7.20) %. For the same molecule, the “Corrected mean loss in mass (%)” value ([3]; TBBA waterborne 1.0% w/w, retention 7.73 kg/m^3, 12 weeks) was 5.52 (8.99) %, the “Corrected mean loss in mass (%)” value ([3]; TBBA waterborne 1.5% w/w, retention 11.75 kg/m^3, 12 weeks) was 2.232 (4.66) % and the “Corrected mean loss in mass (%)” value ([3]; TBBA waterborne 2.0% w/w, retention 15.62 kg/m^3, 12 weeks) was 0.29 (0.25) %. For the same molecule, the “Corrected mean loss in mass (%)” value ([3]; TBBA waterborne 3.0% w/w, retention 23.02 kg/m^3, 12 weeks) was 0.13 (0.26) %, the “Corrected mean loss in mass (%)” value ([4]; TBBA waterborne 0.05% w/w, retention 0.40 kg/m^3, 12 weeks) was 31.44 (5.65) % and the “Corrected mean loss in mass (%)” value [4, 8] was 4.55 (16.26) %. The “Corrected mean loss in mass (%)” value ([4]; TBBA waterborne 1.0% w/w, retention 7.62 kg/m^3, 12 weeks) was 0.36 (0.19) %, the “Corrected mean loss in mass (%)” value ([4]; TBBA waterborne 1.5% w/w, retention 11.61 kg/m^3, 12 weeks) was 0.04 (0.09) % and the “Corrected mean loss in mass (%)” value ([4]; TBBA waterborne 2.0% w/w, retention 15.51 kg/m^3, 12 weeks) was 0.04 (0.20) %. The “Corrected mean loss in mass (%)” value ([4]; TBBA waterborne 3.0% w/w, retention 23.79 kg/m^3, 12 weeks) was 0.11 (0.38) %, the “Corrected mean loss in mass (%)” value ([5]; TBBA waterborne 0.05% w/w, retention 0.25 kg/m^3, 16 weeks) was 30.94 (2.90) % and the “Corrected mean loss in mass (%)” value ([5]; TBBA waterborne 0.5% w/w, retention 3.79 kg/m^3, 16 weeks) was 7.94 (19.35) %. For the same molecule, the “Corrected mean loss in mass (%)” value ([5]; TBBA waterborne 1.0% w/w, retention 7.71 kg/m^3, 16 weeks) was 6.17 (14.50) %, the “Corrected mean loss in mass (%)” value ([5]; TBBA waterborne 1.5% w/w, retention 11.81 kg/m^3, 16 weeks) was −2.19 (070) % and the “Corrected mean loss in mass (%)” value ([5]; TBBA waterborne 2.0% w/w, retention 12.84 kg/m^3, 16 weeks) was −6.21 (0.44) %. For the same molecule, the “Corrected mean loss in mass (%)” value ([5]; TBBA waterborne 3.0% w/w, retention 20.70 kg/m^3, 16 weeks) was −1.67 (0.22) %, the “Corrected mean loss in mass (%)” value ([6]; TBBA waterborne 0.05% w/w, retention 0.39 kg/m^3, 16 weeks) was 46.82 (6.31) % and the “Corrected mean loss in mass (%)” value ([6]; TBBA waterborne 0.5% w/w, retention 3.78 kg/m^3, 16 weeks) was 34.87 (13.21) %. For the same molecule, the “Corrected mean loss in mass (%)” value ([6]; TBBA waterborne 1.0% w/w, retention 7.30 kg/m^3, 16 weeks) was 37.27 (—) %, the “Corrected mean loss in mass (%)” value ([6]; TBBA waterborne 1.5% w/w, retention 11.12 kg/m^3, 16 weeks) was −1.30 (1.16) % and the “Corrected mean loss in mass (%)” value ([6]; TBBA waterborne 2.0% w/w, retention 15.24 kg/m^3, 16 weeks) was −6.79 (0.34) %. The “Corrected mean loss in mass (%)” value ([6]; TBBA waterborne 3.0% w/w, retention 23.65 kg/m^3, 16 weeks) was −1.06 (0.69) %.

From patent US20060167115A1, “Compositions for the preservation of timber” (priority 2003, published 2006)
